Measurements taken from PubChem BioAssay AID330 (DTP/NCI, 2004).
Where “and” joins values, the source holds several entries; their conditions need not be identical. Equal entries are not always repeated. Inconclusive results and toxic doses are left out.

Tested on: P388 leukemia ip, CD2F1 mice, survival T/C
Experiment: NCI In Vivo Anticancer Drug Screen. Data for tumor model P388 Leukemia (intraperitoneal) in CD2F1 (CDF1) mice
Conditions: endpoint: median survival time, higher = longer survival
Method in brief: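 Mice carrying the transplanted tumor received test compound or vehicle. Survival was recorded in each group, and the value is the treated-group measurement divided by that of the vehicle-treated control group.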

[1] = dose: 50.0 mg/kg/injection, schedule: Q01DX009 (ip), vehicle: Klucel (hydroxypropylcellulose) (HPC)
[2] = dose: 200.0 mg/kg/injection, schedule: Q01DX009 (ip), vehicle: Klucel (hydroxypropylcellulose) (HPC)
[3] = dose: 50.0 mg/kg/injection, schedule: Q01DX005 (ip), vehicle: Klucel (hydroxypropylcellulose) (HPC)
[4] = dose: 100.0 mg/kg/injection, schedule: Q01DX005 (ip), vehicle: Klucel (hydroxypropylcellulose) (HPC)
[5] = dose: 200.0 mg/kg/injection, schedule: Q01DX005 (ip), vehicle: Klucel (hydroxypropylcellulose) (HPC)
[6] = dose: 6.25 mg/kg/injection, schedule: Q01DX005 (ip), vehicle: saline with Tween-80
[7] = dose: 100.0 mg/kg/injection, schedule: Q01DX009 (ip), vehicle: saline with Tween-80
[8] = dose: 25.0 mg/kg/injection, schedule: Q01DX009 (ip), vehicle: saline
[9] = dose: 50.0 mg/kg/injection, schedule: Q01DX009 (ip), vehicle: saline
[10] = dose: 60.0 mg/kg/injection, schedule: Q01DX005 (ip), vehicle: saline with Tween-80
[11] = dose: 120.0 mg/kg/injection, schedule: Q01DX005 (ip), vehicle: saline with Tween-80
[12] = dose: 240.0 mg/kg/injection, schedule: Q01DX005 (ip), vehicle: saline with Tween-80
[13] = dose: 50.0 mg/kg/injection, schedule: Q01DX009 (ip), vehicle: saline with Tween-80
[14] = dose: 200.0 mg/kg/injection, schedule: Q01DX009 (ip), vehicle: saline with Tween-80

For `[C-]#[N+]C1CC2CCC1C2.[C-]#[N+]C1CC2CCC1C2.[C-]#[N+]C1CC2CCC1C2.[C-]#[N+]C1CC2CCC1C2.[C-]#[N+]C1CC2CCC1C2.[C-]#[N+]C1CC2CCC1C2.[Mn]` (stereo unspecified), the T/C (dose: 0.19 mg/kg/injection, schedule: Q01DX009 (ip), vehicle: saline with Tween-80) was 115 % of control and the T/C (dose: 0.38 mg/kg/injection, schedule: Q01DX009 (ip), vehicle: saline with Tween-80) was 156 % of control.
With `O=C(O)CC(Cc1ncnc2c1ncn2C1OC(CO)C(O)C1O)C(=O)O` (stereo unspecified) the T/C (dose: 100.0 mg/kg/injection, schedule: Q04DX003 (ip), vehicle: saline) was 100 % of control, the T/C (dose: 200.0 mg/kg/injection, schedule: Q04DX003 (ip), vehicle: saline) was 99 % of control and the T/C (dose: 400.0 mg/kg/injection, schedule: Q04DX003 (ip), vehicle: saline) was 99 % of control.
In the case of `CC(C)(C)C1CCC(P(C)(C)=S)CC1` (stereo unspecified), the T/C (dose: 12.5 mg/kg/injection, schedule: Q01DX009 (ip), vehicle: Klucel (hydroxypropylcellulose) (HPC)) is reported as 99 % of control, the T/C (dose: 25.0 mg/kg/injection, schedule: Q01DX009 (ip), vehicle: Klucel (hydroxypropylcellulose) (HPC)) is reported as 114 % of control and the T/C [1] is reported as 94 % of control. For the same compound, the T/C [2] was 97 % of control.
`C[Si](C)(C)CC[Si]12OCCN(CCO1)CCO2` was tested, and the T/C [3] was 106 % of control, the T/C [4] was 104 % of control and the T/C [5] was 92 % of control.
In the case of `C/C(=N\NC(=S)/N=c1\sccn1Cc1ccccc1)c1ccccn1`, the T/C [6] is reported as 117 % of control and 123 % of control.
In the case of `CN1COC(OC2OCN(C)CC2(C)C)C(C)(C)C1` (stereo unspecified), the T/C [7] is reported as 160 % of control.
For `Nc1ccccc1Sc1ccc2c3c(cccc13)C(=O)N(c1ccccc1)C2=O`, the T/C (dose: 50.0 mg/kg/injection, schedule: Q01DX005 (ip), vehicle: saline with Tween-80) was 91 % of control, the T/C (dose: 100.0 mg/kg/injection, schedule: Q01DX005 (ip), vehicle: saline with Tween-80) was 90 % of control and the T/C (dose: 200.0 mg/kg/injection, schedule: Q01DX005 (ip), vehicle: saline with Tween-80) was 100 % of control.
In the case of `CN1CCCN(C)C1c1ccccc1`, the T/C [8] is reported as 105 % of control, the T/C [9] is reported as 110 % of control and the T/C (dose: 100.0 mg/kg/injection, schedule: Q01DX009 (ip), vehicle: saline) is reported as 95 % of control.
In the case of `Cc1ccc(S(=O)(=O)NC2CC3(C)CCC2C3(C)C)cc1` (stereo unspecified), the T/C [3] is reported as 94 % of control, the T/C [4] is reported as 97 % of control and the T/C [5] is reported as 87 % of control.
`CCCCC(CC)C[N+]1(C)CCOCC1` (stereo unspecified) was tested, and the T/C (dose: 12.5 mg/kg/injection, schedule: Q01DX009 (ip), vehicle: saline) was 100 % of control, the T/C [8] was 100 % of control and the T/C [9] was 94 % of control.
For `[N-]=[N+]=Nc1ccc(SN2C(=O)c3ccccc3C2=O)cc1`, the T/C [10] was 112 % of control, the T/C [11] was 113 % of control and the T/C [12] was 113 % of control.
With `Cc1cccc(C(C#N)C(=O)CCCC(=O)Nc2ccccc2[N+](=O)[O-])c1` (stereo unspecified) the T/C [10] was 98 % of control, the T/C [11] was 100 % of control and the T/C [12] was 94 % of control.
`CON1C(=O)C(c2ccccc2)c2ccccc21` (stereo unspecified) was tested, and the T/C [10] was 106 % of control, the T/C [11] was 96 % of control and the T/C [12] was 96 % of control.
With `Cc1nc2ncn(-c3ccccc3)c2c(=O)n1Cc1ccccc1` the T/C [3] was 105 % of control, the T/C [4] was 105 % of control and the T/C [5] was 105 % of control.
With `COc1cc(O)c2c(-c3cc(O)ccc3O)cc(=O)oc2c1` the T/C (dose: 60.0 mg/kg/injection, schedule: Q01DX005 (ip), vehicle: Klucel (hydroxypropylcellulose) (HPC)) was 94 % of control, the T/C (dose: 120.0 mg/kg/injection, schedule: Q01DX005 (ip), vehicle: Klucel (hydroxypropylcellulose) (HPC)) was 88 % of control and the T/C (dose: 240.0 mg/kg/injection, schedule: Q01DX005 (ip), vehicle: Klucel (hydroxypropylcellulose) (HPC)) was 96 % of control.
With `COCCC1CN(C(C)C)C(=O)C1(c1ccccc1)c1ccccc1` (stereo unspecified) the T/C [1] was 106 % of control, the T/C (dose: 100.0 mg/kg/injection, schedule: Q01DX009 (ip), vehicle: Klucel (hydroxypropylcellulose) (HPC)) was 92 % of control and the T/C [2] was 108 % of control.
`O=C(C=C(C(F)(F)F)C(F)(F)F)c1ccccc1[N+](=O)[O-]` was tested, and the T/C (dose: 1.32 mg/kg/injection, schedule: Q04DX003 (ip), vehicle: other) was 109 % of control, the T/C (dose: 2.0 mg/kg/injection, schedule: Q04DX003 (ip), vehicle: other) was 100 % of control and the T/C (dose: 3.0 mg/kg/injection, schedule: Q04DX003 (ip), vehicle: other) was 109 % of control. The T/C (dose: 4.5 mg/kg/injection, schedule: Q04DX003 (ip), vehicle: other) was 104 % of control, the T/C (dose: 6.25 mg/kg/injection, schedule: Q04DX003 (ip), vehicle: other) was 109 % of control and the T/C (dose: 25.0 mg/kg/injection, schedule: Q04DX003 (ip), vehicle: other) was 86 % of control.
`CC(=O)OC1CC(/C=C/C(=O)OC2=C(O)CCC2=O)=CN1` (stereo unspecified) was tested, and the T/C (dose: 4.37 mg/kg/injection, schedule: Q01DX001 (ip), vehicle: Klucel (hydroxypropylcellulose) (HPC)) was 100 % of control, the T/C (dose: 8.75 mg/kg/injection, schedule: Q01DX001 (ip), vehicle: Klucel (hydroxypropylcellulose) (HPC)) was 99 % of control and the T/C (dose: 17.5 mg/kg/injection, schedule: Q01DX001 (ip), vehicle: Klucel (hydroxypropylcellulose) (HPC)) was 102 % of control. For the same compound, the T/C (dose: 35.0 mg/kg/injection, schedule: Q01DX001 (ip), vehicle: Klucel (hydroxypropylcellulose) (HPC)) was 105 % of control.
With `CCCCCCC(=O)/C=C/c1cccc(OCOC)c1` the T/C [13] was 87 % of control, the T/C [7] was 113 % of control and the T/C [14] was 103 % of control.
With `CC(C)=CCN1CCC2(C)c3cc(O)ccc3CCC2C1` (stereo unspecified) the T/C [3] was 94 % of control, the T/C [4] was 104 % of control and the T/C [5] was 94 % of control.
For `C[C@@H]1C[C@](O)([C@@H](C)Cl)C(=O)O[C@@H]2CCN3CC=C(COC(=O)[C@]1(C)O)[C@H]23`, the T/C (dose: 2.75 mg/kg/injection, schedule: Q01DX009 (ip), vehicle: saline) was 104 % of control, the T/C (dose: 3.75 mg/kg/injection, schedule: Q01DX009 (ip), vehicle: saline) was 103 % of control and the T/C (dose: 5.5 mg/kg/injection, schedule: Q01DX009 (ip), vehicle: saline) was 104 % of control. The T/C (dose: 7.5 mg/kg/injection, schedule: Q01DX009 (ip), vehicle: saline) was 106 % of control, the T/C (dose: 11.0 mg/kg/injection, schedule: Q01DX009 (ip), vehicle: saline) was 113 % of control and the T/C (dose: 15.0 mg/kg/injection, schedule: Q01DX009 (ip), vehicle: saline) was 95 % of control. The T/C (dose: 22.0 mg/kg/injection, schedule: Q01DX009 (ip), vehicle: saline) was 104 % of control and the T/C (dose: 30.0 mg/kg/injection, schedule: Q01DX009 (ip), vehicle: saline) was 106 % of control.
For `O=C1CCC(=O)c2c1c(O)c1c(O)ccc(O)c1c2O`, the T/C [6] was 96 % of control, the T/C (dose: 12.5 mg/kg/injection, schedule: Q01DX005 (ip), vehicle: saline with Tween-80) was 87 % of control and the T/C (dose: 25.0 mg/kg/injection, schedule: Q01DX005 (ip), vehicle: saline with Tween-80) was 94 % of control.
In the case of `CC1CC(=O)NC(=O)N1` (stereo unspecified), the T/C [13] is reported as 96 % of control, the T/C [7] is reported as 102 % of control and the T/C (dose: 100.0 mg/kg/injection, schedule: Q04DX003 (ip), vehicle: saline with Tween-80) is reported as 97 % of control. The T/C [14] was 99 % of control, the T/C (dose: 200.0 mg/kg/injection, schedule: Q04DX003 (ip), vehicle: saline with Tween-80) was 94 % of control and the T/C (dose: 400.0 mg/kg/injection, schedule: Q04DX003 (ip), vehicle: saline with Tween-80) was 103 % of control.
With `COc1ccc(C(O)Cc2cc(OC)c(OC)c(OC)c2)cc1O` (stereo unspecified) the T/C (dose: 31.25 mg/kg/injection, schedule: Q01DX009 (ip), vehicle: saline + Tween-80 + alcohol) was 105 % of control, the T/C (dose: 62.5 mg/kg/injection, schedule: Q01DX009 (ip), vehicle: saline + Tween-80 + alcohol) was 98 % of control and the T/C (dose: 125.0 mg/kg/injection, schedule: Q01DX009 (ip), vehicle: saline + Tween-80 + alcohol) was 89 % of control. For the same compound, the T/C (dose: 250.0 mg/kg/injection, schedule: Q01DX009 (ip), vehicle: saline + Tween-80 + alcohol) was 91 % of control.
